Measurements from patent US20260226068A1, “IMIDAZOTRIAZINE IL-17A MODULATORS AND USES THEREOF” (DICE ALPHA, INC., priority 2023, published 2026).

Experiments:
IL-17A/A = biological target: T1, IL-17A/A (Homo sapiens, UniProt Q16552); assay: IL-17A/A HEK-Blue cell assay (SEAP reporter); assay type: cell-based; settings: HEK-Blue IL-17A reporter cells, IL17A/A 5 ng/mL, 20 hours, SEAP read at A630; read-out: HEK-Blue IL17AA (IC50 for IL-17A/A inhibition)
T1 construct: purchased Genscript Z03228
T1 sequence (Q16552 24-155): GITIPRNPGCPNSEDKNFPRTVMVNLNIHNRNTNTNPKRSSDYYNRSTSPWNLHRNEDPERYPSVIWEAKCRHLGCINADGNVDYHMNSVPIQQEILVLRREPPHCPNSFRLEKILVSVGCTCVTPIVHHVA

IL-17A/F = biological target: T2, IL-17A/F (Homo sapiens, UniProt Q16552+Q96PD4); assay: IL-17A/F HEK-Blue cell assay (SEAP reporter); assay type: cell-based; settings: HEK-Blue IL-17A reporter cells, IL17A/F 5 ng/mL, 20 hours, SEAP read at A630; read-out: HEK-Blue IL17AF (IC50 for IL-17A/F inhibition)
T2 construct: purchased R&D Systems
T2 sequence (Q16552 24-155): T1 sequence (Q16552 24-155)
T2 sequence (Q96PD4 31-163): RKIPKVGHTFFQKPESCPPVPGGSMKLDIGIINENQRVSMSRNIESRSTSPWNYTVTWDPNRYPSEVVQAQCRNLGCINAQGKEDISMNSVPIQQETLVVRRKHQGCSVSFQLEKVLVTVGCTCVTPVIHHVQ

For `CCn1nccc1C(=O)N[C@H](c1cn2nc(C[C@H]3C[C@@H](C(F)(F)F)CNC3=O)c(CC3COCCO3)nc2n1)C1CCC(F)(F)CC1` (stereo partly drawn) [Compound 173, N-((1S)-(3-((1,4-dioxan-2-yl)methyl)-2-(((3R,5R)-2-oxo-5-(trifluoromethyl)piperidin-3-yl)methyl)imidazo[1,2-b][1,2,4]triazin-6-yl)(4,4-difluorocyclohexyl)methyl)-1-ethyl-1H-pyrazole-5-carboxamide], the IC50 (IL-17A/A) was 0.1 to 1 µM and the IC50 (IL-17A/F) was > 1 µM.

`CCn1nccc1C(=O)N[C@H](c1cn2nc(C[C@H]3C[C@@H](C(F)(F)F)CNC3=O)c(CC3CCOCC3)nc2n1)[C@H]1CC[C@H](C)CC1` [Compound 179, 1-ethyl-N-((1S)-((1R,4S)-4-methylcyclohexyl)(2-(((3R,5R)-2-oxo-5-(trifluoromethyl)piperidin-3-yl)methyl)-3-((tetrahydro-2H-pyran-4-yl)methyl)imidazo[1,2-b][1,2,4]triazin-6-yl)methyl)-1H-pyrazole-5-carboxamide] was tested, and the IC50 (IL-17A/A) was < 0.1 µM and the IC50 (IL-17A/F) was < 0.1 µM.

`CCn1nccc1C(=O)N[C@H](c1cn2nc(C[C@H]3C[C@@H](C(F)(F)F)CNC3=O)c(N(C)C3COC3)nc2n1)C1CCC(F)(F)CC1` [Compound 180, N—((S)-(4,4-difluorocyclohexyl)(3-(methyl(oxetan-3-yl)amino)-2-(((3R,5R)-2-oxo-5-(trifluoromethyl)piperidin-3-yl)methyl)imidazo[1,2-b][1,2,4]triazin-6-yl)methyl)-1-ethyl-1H-pyrazole-5-carboxamide] was tested, and the IC50 (IL-17A/A) was 0.1 to 1 µM and the IC50 (IL-17A/F) was > 1 µM.

In the case of `O=C(N[C@H](c1cn2nc(C[C@H]3C[C@@H](C(F)(F)F)CNC3=O)c(N3CCOCC3)nc2n1)C1CCC(F)(F)CC1)OCc1cc(C(F)(F)F)on1` [Compound 181, (5-(trifluoromethyl)isoxazol-3-yl)methyl ((S)-(4,4-difluorocyclohexyl)(3-morpholino-2-(((3R,5R)-2-oxo-5-(trifluoromethyl)piperidin-3-yl)methyl)imidazo[1,2-b][1,2,4]triazin-6-yl)methyl)carbamate], the IC50 (IL-17A/A) is reported as < 0.1 µM and the IC50 (IL-17A/F) is reported as > 1 µM.

In the case of `CCn1nccc1C(=O)N[C@H](c1cn2nc(C[C@H]3C[C@@H](C(F)(F)F)CNC3=O)c(C3CCC(F)(F)CC3)nc2n1)C1CCC(F)(F)CC1` [Compound 182, N-((1S)-(4,4-difluorocyclohexyl)(3-(4,4-difluorocyclohexyl)-2-(((3R,5R)-2-oxo-5-(trifluoromethyl)piperidin-3-yl)methyl)imidazo[1,2-b][1,2,4]triazin-6-yl)methyl)-1-ethyl-1H-pyrazole-5-carboxamide], the IC50 (IL-17A/A) is reported as < 0.1 µM and the IC50 (IL-17A/F) is reported as < 0.1 µM.

With `O=C(N[C@H](c1cn2nc(C[C@H]3C[C@@H](C(F)(F)F)CNC3=O)c(C3CCOCC3)nc2n1)C1CCC(F)(F)CC1)OCc1cc(C(F)(F)F)on1` [Compound 183, (5-(trifluoromethyl)isoxazol-3-yl)methyl ((1S)-(4,4-difluorocyclohexyl)(2-(((3R,5R)-2-oxo-5-(trifluoromethyl)piperidin-3-yl)methyl)-3-(tetrahydro-2H-pyran-4-yl)imidazo[1,2-b][1,2,4]triazin-6-yl)methyl)carbamate] the IC50 (IL-17A/A) was < 0.1 µM and the IC50 (IL-17A/F) was 0.1 to 1 µM.

In the case of `O=C(N[C@H](c1cn2nc(C[C@H]3C[C@@H](C(F)(F)F)CNC3=O)c(C3CCOCC3)nc2n1)C1CCC(F)(F)CC1)c1ccnn1C(F)(F)F` [Compound 184, N-((1S)-(4,4-difluorocyclohexyl)(2-(((3R,5R)-2-oxo-5-(trifluoromethyl)piperidin-3-yl)methyl)-3-(tetrahydro-2H-pyran-4-yl)imidazo[1,2-b][1,2,4]triazin-6-yl)methyl)-1-(trifluoromethyl)-1H-pyrazole-5-carboxamide], the IC50 (IL-17A/A) is reported as < 0.1 µM and the IC50 (IL-17A/F) is reported as > 1 µM.

For `O=C(N[C@H](c1cn2nc(C[C@H]3C[C@@H](C(F)(F)F)CNC3=O)c(C3CCOCC3)nc2n1)C1CCC(F)(F)CC1)c1ccnn1C(F)F` [Compound 185, N-((1S)-(4,4-difluorocyclohexyl)(2-(((3R,5R)-2-oxo-5-(trifluoromethyl)piperidin-3-yl)methyl)-3-(tetrahydro-2H-pyran-4-yl)imidazo[1,2-b][1,2,4]triazin-6-yl)methyl)-1-(difluoromethyl)-1H-pyrazole-5-carboxamide], the IC50 (IL-17A/A) was < 0.1 µM and the IC50 (IL-17A/F) was 0.1 to 1 µM.

`O=C(N[C@H](c1cn2nc(C[C@H]3C[C@@H](C(F)(F)F)CNC3=O)c(C3CCOCC3)nc2n1)C1CCC(F)(F)CC1)c1ccnn1CC(F)(F)F` [Compound 186, N-((1S)-(4,4-difluorocyclohexyl)(2-(((3R,5R)-2-oxo-5-(trifluoromethyl)piperidin-3-yl)methyl)-3-(tetrahydro-2H-pyran-4-yl)imidazo[1,2-b][1,2,4]triazin-6-yl)methyl)-1-(2,2,2-trifluoroethyl)-1H-pyrazole-5-carboxamide] was tested, and the IC50 (IL-17A/A) was < 0.1 µM and the IC50 (IL-17A/F) was 0.1 to 1 µM.

In the case of `O=C(N[C@H](c1cn2nc(C[C@H]3C[C@@H](C(F)(F)F)CNC3=O)c(C3CCOCC3)nc2n1)C1CCC(F)(F)CC1)c1ccnn1CC(F)F` [Compound 187, N-((1S)-(4,4-difluorocyclohexyl)(2-(((3R,5R)-2-oxo-5-(trifluoromethyl)piperidin-3-yl)methyl)-3-(tetrahydro-2H-pyran-4-yl)imidazo[1,2-b][1,2,4]triazin-6-yl)methyl)-1-(2,2-difluoroethyl)-1H-pyrazole-5-carboxamide], the IC50 (IL-17A/A) is reported as < 0.1 µM and the IC50 (IL-17A/F) is reported as 0.1 to 1 µM.

In the case of `O=C(N[C@H](c1cn2nc(C[C@H]3C[C@@H](C(F)(F)F)CNC3=O)c(C3CCOCC3)nc2n1)C1CCC(F)(F)CC1)c1ccnn1CCF` [Compound 188, N-((1S)-(4,4-difluorocyclohexyl)(2-(((3R,5R)-2-oxo-5-(trifluoromethyl)piperidin-3-yl)methyl)-3-(tetrahydro-2H-pyran-4-yl)imidazo[1,2-b][1,2,4]triazin-6-yl)methyl)-1-(2-fluoroethyl)-1H-pyrazole-5-carboxamide], the IC50 (IL-17A/A) is reported as < 0.1 µM and the IC50 (IL-17A/F) is reported as 0.1 to 1 µM.

In the case of `Cc1nocc1C(=O)N[C@H](c1cn2nc(C[C@H]3C[C@@H](C(F)(F)F)CNC3=O)c(C3CCOCC3)nc2n1)C1CCC(F)(F)CC1` [Compound 189, N-((1S)-(4,4-difluorocyclohexyl)(2-(((3R,5R)-2-oxo-5-(trifluoromethyl)piperidin-3-yl)methyl)-3-(tetrahydro-2H-pyran-4-yl)imidazo[1,2-b][1,2,4]triazin-6-yl)methyl)-3-methylisoxazole-4-carboxamide], the IC50 (IL-17A/A) is reported as < 0.1 µM and the IC50 (IL-17A/F) is reported as 0.1 to 1 µM.

For `O=C(N[C@H](c1cn2nc(C[C@H]3C[C@@H](C(F)(F)F)CNC3=O)c(C3CCOCC3)nc2n1)C1CCC(F)(F)CC1)c1nonc1C(F)F` [Compound 190, N-((1S)-(4,4-difluorocyclohexyl)(2-(((3R,5R)-2-oxo-5-(trifluoromethyl)piperidin-3-yl)methyl)-3-(tetrahydro-2H-pyran-4-yl)imidazo[1,2-b][1,2,4]triazin-6-yl)methyl)-4-(difluoromethyl)-1,2,5-oxadiazole-3-carboxamide], the IC50 (IL-17A/A) was < 0.1 µM and the IC50 (IL-17A/F) was > 1 µM.

`O=C(N[C@H](c1cn2nc(C[C@H]3C[C@@H](C(F)(F)F)CNC3=O)c(C3CCOCC3)nc2n1)C1CCC(F)(F)CC1)c1conc1C(F)(F)F` [Compound 191, N-((1S)-(4,4-difluorocyclohexyl)(2-(((3R,5R)-2-oxo-5-(trifluoromethyl)piperidin-3-yl)methyl)-3-(tetrahydro-2H-pyran-4-yl)imidazo[1,2-b][1,2,4]triazin-6-yl)methyl)-3-(trifluoromethyl)isoxazole-4-carboxamide] was tested, and the IC50 (IL-17A/A) was < 0.1 µM and the IC50 (IL-17A/F) was 0.1 to 1 µM.

For `CCn1nccc1C(=O)N[C@H](c1cn2nc(C[C@H]3C[C@@H](C(F)(F)F)CNC3=O)c(N3CCC(F)(F)CC3)nc2n1)C1CCC(F)(F)CC1` [Compound 192, N—((S)-(4,4-difluorocyclohexyl)(3-(4,4-difluoropiperidin-1-yl)-2-(((3R,5R)-2-oxo-5-(trifluoromethyl)piperidin-3-yl)methyl)imidazo[1,2-b][1,2,4]triazin-6-yl)methyl)-1-ethyl-1H-pyrazole-5-carboxamide], the IC50 (IL-17A/A) was < 0.1 µM and the IC50 (IL-17A/F) was 0.1 to 1 µM.

With `CCn1nccc1C(=O)N[C@H](c1cn2nc(C[C@H]3C[C@@H](C(F)(F)F)CNC3=O)c(N3CC4(CCOC4)C3)nc2n1)C1CCC(F)(F)CC1` [Compound 193, N—((S)-(4,4-difluorocyclohexyl)(2-(((3R,5R)-2-oxo-5-(trifluoromethyl)piperidin-3-yl)methyl)-3-(6-oxa-2-azaspiro[3.4]octan-2-yl)imidazo[1,2-b][1,2,4]triazin-6-yl)methyl)-1-ethyl-1H-pyrazole-5-carboxamide] the IC50 (IL-17A/A) was < 0.1 µM and the IC50 (IL-17A/F) was 0.1 to 1 µM.

With `CCn1nccc1C(=O)N[C@H](c1cn2nc(C[C@H]3C[C@@H](C(F)(F)F)CNC3=O)c(N3CCC(C)(O)CC3)nc2n1)C1CCC(F)(F)CC1` [Compound 194, N—((S)-(4,4-difluorocyclohexyl)(3-(4-hydroxy-4-methylpiperidin-1-yl)-2-(((3R,5R)-2-oxo-5-(trifluoromethyl)piperidin-3-yl)methyl)imidazo[1,2-b][1,2,4]triazin-6-yl)methyl)-1-ethyl-1H-pyrazole-5-carboxamide] the IC50 (IL-17A/A) was < 0.1 µM and the IC50 (IL-17A/F) was 0.1 to 1 µM.

In the case of `CCn1nccc1C(=O)N[C@H](c1cn2nc(C[C@H]3C[C@@H](C(F)(F)F)CNC3=O)c(N(C)CC3(C)COC3)nc2n1)C1CCC(F)(F)CC1` [Compound 195, N—((S)-(4,4-difluorocyclohexyl)(3-(methyl((3-methyloxetan-3-yl)methyl)amino)-2-(((3R,5R)-2-oxo-5-(trifluoromethyl)piperidin-3-yl)methyl)imidazo[1,2-b][1,2,4]triazin-6-yl)methyl)-1-ethyl-1H-pyrazole-5-carboxamide], the IC50 (IL-17A/A) is reported as 0.1 to 1 µM and the IC50 (IL-17A/F) is reported as > 1 µM.
